The conditions of this series: 1 g added to 25 mL of water at room temperature (about 25° C., 1 atmosphere).

Molecules are shown by their SMILES.

As to `[O]=[Zn]` [zinc oxide], the Water solubility entry is reported as “almost insoluble”.

The record behind these values is patent publication US20210260108A1, “ZINC-CONTAINING, WATER-SOLUBLE POLYGLUTAMIC ACID COMPLEX COMPOSITION” (Alextand Co., Ltd, priority 2018, published 2021).
